Assay [1] has as its target T1, PARP7 (Homo sapiens (Human), UniProt Q7Z3E1). The experiment in a line: PARP7 inhibition potency (Table A-1). As to conditions: comparison of separated isomers; see Table A-1. Format: biochemical.
Assay [2] has as its target T1, PARP7. The assay can be described thus: Enzymatic assay for inhibition of PARP7 (TR-FRET displacement of Probe A from the TIPARP active site). Format: binding. On the procedure:
20 nL of a dose response curve of each test compound was spotted in black 384-well polystyrene proxiplates (Perkin Elmer) using a Mosquito (TTP Labtech). […] Reactions were incubated at 25° C. for an additional 30 min, then read on an Envision platereader equipped with a LANCE/DELFIA top mirror (Perkin Elmer) using excitation of 320 nm and emission of 615 nm and […] with a 90 μs delay. The ratio of the 665/615 nm emission were calculated for each well to determine the amount of complex of TIPARP and Probe A in each well. […] The Hill Coefficient is normally allowed to float but may also be fixed at 1 in a 3-parameter fit. Y is the % inhibition and X is the compound concentration.
(In general: TR-FRET usually uses a lanthanide donor and a delayed reading to cut background.)

In assay [3] the test system is CT26 cells. The experiment in a line: Tumor growth in murine CT26 colon cancer syngeneic model (oral dosing). The assay is classed as in vivo. As to conditions: CT26, BALB/c mice, BID 125-500 mg/kg or QD 500 mg/kg, 21 days. The source says:
(§1) Example H: Inhibition of Tumor Growth by Oral Dosing with a PARP7 Inhibitor
(§2) The effect of Compound 561 on tumor growth was studied in a human NCI-H1373 lung cancer xenograft and a murine CT26 colon cancer syngeneic model.
For the CT26 study, BALB/c mice were inoculated subcutaneously in the right flank with CT26 cells for tumor development. After 5 days of cell inoculation, mice with 36-79 mm^3 tumors were randomized into treatment groups with mean tumor volumes of 54 mm^3. The treatments were started from the next day post randomization (defined randomization day as day 0) and were treated with vehicle (25 or 50% Labrasol) or Compound 561 BID (2 times a day every 12 hours) at doses ranging from 125-500 mg/kg or QD (once a day) at 500 mg/kg for 21 days by oral gavage or needle subcutaneously. Tumor volumes were determined by manual calipers every 2-3 days. Mean tumor volume and SEM are plotted. BID: twice a day; PO: per oral administration; QD: once a day; SC: per subcutaneous administration. The first two doses for vehicle and Compound 561 500 mg/kg in the QD groups were delivered by subcutaneous injection. […] Statistical significance is calculated using two-way ANOVA followed by Bonferroni post-tests in which the treatment groups were compared to vehicle control (**** P<0.0001).

Assay [4] relates to NCI-H1373 cells. The experiment in a line: Tumor growth in human NCI-H1373 lung cancer xenograft (oral dosing). The assay is classed as in vivo, SCID mice. As to conditions: 62.5 to 500 mg/kg once a day for 28 days.
Source text: as §1, §2
For the NCI-H1373 study, SCID mice were inoculated subcutaneously in the right flank with NCI-H1373 cells for tumor development. After 5 days of tumor growth, mice with 89-148 mm^3 tumors were randomized into treatment groups with mean tumor volumes of 121 mm^3. The treatments were started from the next day post randomization (defined randomization day as day 0) and were treated with vehicle (50% Labrasol) or Compound 561 (62.5, 125, 250, and 500 mg/kg) once a day for 28 days by oral gavage. Tumor volumes were determined by manual calipers every 2-3 days. Mean tumor volume and SEM are plotted. QD: once a day; PO: per oral administration. Statistical significance is calculated using two-way ANOVA followed by Bonferroni post-tests in which the treatment groups were compared to vehicle control (**** P<0.0001).
On the technique in general: A xenograft is tissue or cells of one species grown in another, often human tumour cells in immunodeficient mice.

Assay [5] deals with 4T1-luc2-1A4 cells. The experiment in a line: Tumor growth in murine syngeneic model 4T1 (orthotopic, mammary fat pad). The assay is classed as in vivo. To be noted: 4T1, BALB/c mice. From the text: (§3) Example G: Inhibition of Tumor Growth by Treatment with PARP7 Inhibitors
For the 4T1 study female BALB/c mice were inoculated orthotopically in the mammary fat pad with 4T1-luc2-1A4 cells for tumor development. Eight days after tumor inoculation, 45 mice with tumor size ranging from 63-88 mm^3 (average tumor size 67 mm^3) were selected and assigned into 3 groups using stratified randomization with 15 mice in each group based upon their tumor volumes. The treatments were started from the next day post randomization (defined randomization day as D0) and were treated with vehicle (0.5% methylcellulose +0.2% Tween 80), Compound 98 (500 mg/kg S.C. QD*21 days), Compound 93A (100 mg/kg S.C. BID*21 days) respectively. The tumor sizes were measured three times per week during the treatment. The entire study was terminated on D20.
(§4) Mean tumor volume and SEM for both studies are plotted. Statistical significance, calculated using two-tailed unpaired t-tests in which each treatment group was compared to vehicle control, is indicated by an asterisk. Statistics were performed on groups with less than 20% animal loss (D21 for CT26, D17 for 4T1).

Assay [6] deals with CT26 cells. The experiment in a line: Tumor growth in murine syngeneic model CT26 (subcutaneous dosing). The assay is classed as in vivo. To be noted: CT26, BALB/c mice.
Source text: as §3
For the CT26 study BALB/c mice were inoculated subcutaneously at the right flank with CT26 cells for tumor development. Four days after tumor inoculation, 36 mice with tumor size ranging from 40-55 mm^3 (average tumor size 47 mm^3) were selected and assigned into 3 groups using stratified randomization with 12 mice in each group based upon their tumor volumes. The treatments were started from the next day post randomization (defined randomization day as day 0) and were treated with vehicle (0.5% methylcellulose +0.2% Tween 80), Compound 98 (500 mg/kg S.C. QD*21 days), Compound 93A (100 mg/kg S.C. BID*21 days) respectively. The tumor sizes were measured three times per week during the treatment. The entire study was terminated on day 21.
as §4

pIC50: −log10 of the molar value. Where only a bound is given, the exact number is not on record here.

Eight molecules from patent US11014913B2, “Pyridazinones as PARP7 inhibitors” (Ribon Therapeutics Inc., priority 2018, dated 2021) can be followed below.

T1 sequence (Q7Z3E1 whole entry): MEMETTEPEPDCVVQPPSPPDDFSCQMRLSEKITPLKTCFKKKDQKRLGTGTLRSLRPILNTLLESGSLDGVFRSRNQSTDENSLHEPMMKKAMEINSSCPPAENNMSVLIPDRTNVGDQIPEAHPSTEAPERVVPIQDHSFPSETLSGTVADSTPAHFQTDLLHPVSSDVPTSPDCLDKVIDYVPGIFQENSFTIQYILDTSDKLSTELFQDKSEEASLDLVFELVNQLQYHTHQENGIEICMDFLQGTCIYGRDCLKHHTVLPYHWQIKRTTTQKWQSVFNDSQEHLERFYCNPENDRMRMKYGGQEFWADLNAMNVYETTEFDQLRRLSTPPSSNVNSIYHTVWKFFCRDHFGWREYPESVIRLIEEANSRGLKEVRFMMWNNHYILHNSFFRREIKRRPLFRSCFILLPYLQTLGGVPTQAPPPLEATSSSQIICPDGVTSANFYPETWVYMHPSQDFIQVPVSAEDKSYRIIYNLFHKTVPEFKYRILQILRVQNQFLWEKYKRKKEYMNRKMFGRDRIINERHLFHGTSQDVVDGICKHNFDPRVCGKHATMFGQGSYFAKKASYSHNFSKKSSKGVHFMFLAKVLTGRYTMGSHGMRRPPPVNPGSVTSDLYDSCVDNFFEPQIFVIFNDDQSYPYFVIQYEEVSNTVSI

Regarding `N#Cc1ccc(N2CCN(C(=O)c3cccc(OC[C@@H]4c5ccccc5CN4c4cn[nH]c(=O)c4C(F)(F)F)c3)CC2)nc1` (single isomer, unassigned) [Example 18 Isomer B], the “relative potency of the enantiomers” value in assay [1] is “more potent enantiomer”.
As for “5-[[(2S)-1-[3-[4-(5-chloropyrimidin-2-yl)piperazin-1-yl]-3-oxopropoxy]-3-methoxypropan-2-yl]oxy]-4-(trifluoromethyl)-2,3-dihydropyridazin-3-one [Example 560 Isomer C]”, the pIC50 – broadly, −log10 of the IC50, conventionally taken in molar units – in assay [2] is over 7.00.
The molecule “5-[[(2R)-1-[3-[4-(5-chloropyrimidin-2-yl)piperazin-1-yl]-3-oxopropoxy]-3-methoxypropan-2-yl]oxy]-4-(trifluoromethyl)-2,3-dihydropyridazin-3-one [Example 560 Isomer D]” had a pIC50 in assay [2] of 6.00 to 7.00.
Regarding `C[C@@H](COCCC(=O)N1CCN(c2ncc(C(F)(F)F)cn2)CC1)Nc1cn[nH]c(=O)c1C(F)(F)F` [Example 561, 5-[[(2S)-1-(3-oxo-3-[4-[5-(trifluoromethyl)pyrimidin-2-yl]piperazin-1-yl]propoxy)propan-2-yl]amino]-4-(trifluoromethyl)-2,3-dihydropyridazin-3-one], the tumor growth entry in assay [3] is “significantly reduces tumor growth”. The tumor regression result in assay [4] is “complete tumor regression at all dose levels”.
For `N#Cc1ccc(N2CCN(C(=O)CCOC[C@@H]3c4ccccc4CN3c3cn[nH]c(=O)c3C(F)(F)F)CC2)nc1` [Example 93A, 6-[4-(3-[[(1S)-2-[6-oxo-5-(trifluoromethyl)-1,6-dihydropyridazin-4-yl]-2,3-dihydro-1H-isoindol-1-yl]methoxy]propanoyl)piperazin-1-yl]pyridine-3-carbonitrile], the tumor growth entry in assay [5] (100 mg/kg S.C. BID*21 days) and in assay [6] (100 mg/kg S.C. BID*21 days) was “significantly reduce tumor growth” throughout.
For `N#Cc1ccc(N2CCN(C(=O)CCOC[C@@H]3CCCN3c3cn[nH]c(=O)c3C(F)(F)F)CC2)nc1` [Example 98, 6-[4-(3-[[(2S)-1-[6-Oxo-5-(trifluoromethyl)-1,6-dihydropyridazin-4-yl]pyrrolidin-2-yl]methoxy]propanoyl)piperazin-1-yl]pyridine-3-carbonitrile], the tumor growth result in assay [5] (500 mg/kg S.C. QD*21 days) and in assay [6] (500 mg/kg S.C. QD*21 days) was “significantly reduce tumor growth” throughout.
The molecule `N#Cc1ccc(N2CCN(C(=O)CNCC[C@@H]3c4ccccc4CN3c3cn[nH]c(=O)c3C(F)(F)F)CC2)nc1` [Example 144B, 6-[4-[2-([2-[(1R)-2-[6-oxo-5-(trifluoromethyl)-1,6-dihydropyridazin-4-yl]-2,3-dihydro-1H-isoindol-1-yl]ethyl]amino)acetyl]piperazin-1-yl]pyridine-3-carbonitrile] gave a pIC50 in assay [2] of 6.00 to 7.00.
In assay [2], “5-[(2R)-2-[3-[4-(5-chloropyrimidin-2-yl)piperazin-1-yl]-3-oxopropoxy]-3-methoxypropoxy]-4-(trifluoromethyl)-2,3-dihydropyridazin-3-one [Example 560 Isomer B]” gave a pIC50 of 6.00 to 7.00.
